In patent US20070005124A1, “Endoluminal prosthesis comprising a therapeutic agent” (Blue Medical Devices B.V., priority 2003, published 2007):
Entries after “also recorded” stand apart in the source; their conditions may differ.

Legend:
[1] = In-vitro release of drug from coated stent; format: physicochemical
Method: (§1) A disavantage of the direct coating system is the fast release of the drug from the stent.
(§2) In order to maintain significant melatonin concentrations for a longer period of time to obtain a durable anti-restenosis effect the present inventor has developed new methods to achieve a slower melatonin release. The drug was dissolved in a biocompatible emulsion of oil and a solvent wherein the drug is highly soluble. The stent was dipped in this emulsion several times and in between the different dipping steps air-dried using a warm laminar flow to evaporate the solvent and harden the drug/oil coating.

porcine coronary model [2] = assay: Directly (ethanol dip) coated stents in a porcine coronary model; format: in vivo; conditions: direct coating
From the text: To get rid of the polymer, which remains always a concern when coating a drug on an endoluminal prosthesis, since several polymers have shown to be non biocompatible and to induce an inflammatory response leading to SMC proliferation and restenosis, the present inventor tried to coat melatonin directly to the surface of the endoluminal prosthesis. As endoluminal prosthesis use was made of a commercially available 316L stainless steel coronary stent (V-Flex Plus, 16 mm/3.0 mm, William Cook Europe) and the stent was dipped in a 20 mg/ml ethanol solution for 30 seconds. After removal the stent was air-dried using a warm laminar flow to evaporate the ethanol. Using this method a total melatonin load on the stent of 20 μg could be achieved. […] This could be explained by the 1) the potent free radical scavenging effect of melatonin, 2) the potent anti-inflammatory effect of melatonin, 3) maybe a direct effect on SMC proliferation, 4) the non toxic effect of melatonin on other mediators of the healing response.
In a next step the total load of melatonin was increased by using more concentrated melatonin/ethanol solutions. By doing so a maximum total load of 300 μg/ stent could be achieved.

[3] = In-vivo melatonin coronary vascular concentration after direct-coated stent; conditions: direct coating
From the text: as §1

[4] = system: coronary arteries of pigs; assay: Probucol and Melatonin biological-oil coated stents implanted in porcine coronary arteries, histopathology and morphometry at 4 weeks; format: in vivo, Domestic crossbred pigs; conditions: oil-coated loaded stents; for AS: Area stenosis (= 100 * (1 − LA/IEL)) / Inflammation (peri-strut inflammation score 1-3, mean) / Injury (arterial injury score, Schwartz grade 0-3, mean) / NIH: Neointimal hyperplasia (= IEL − LA) / LA: Lumen area: 4 weeks follow-up; for LA: Lumen area: Probucol 447+/−56 μg, Melatonin 367+/−47 μg per stent; for effect on arterial injury and inflammatory response (in words): compared to bare and/or oil-only stents
Method: Domestic crossbred pigs of both sexes weighing 20-25 kg were used. They were fed with a standard natural grain diet without lipid or cholesterol supplementation throughout the study. All animals were treated and cared for in accordance with the Belgium National Institute of Health Guidelines for care and use of laboratory animals.
In this study, bare Jostent Flexmaster stents (n=8), Bare stents dipped in a Biological oil coating (Oil Only; n=7), Bare stents dipped in a Probucol/Biological oil coating solution resulting in a total Probucol load of 447+/−56 μg/per stent (Pro, n=7) and Bare stents dipped in a Melatinin/Biological oil coating solution resulting in a total Melatonin load of 367+/−47 μg/stent (Mela, n=8). Stents were implanted in the coronary arteries of 15 pigs. All pigs were followed for 4 weeks to evaluate the peri-strut inflammatory response and neointimal formation.
Surgical procedure and stent implantation in the coronary arteries were performed according to the method described by De Scheerder et al. in “Local angiopeptin delivery using coated stents reduces neointimal proliferation in overstretched porcine coronary arteries.” J. Inves. Cardiol. 8:215-222; 1996, and in “Experimental study of thrombogenicity and foreign body reaction induced by heparin-coated coronary stents.” Circulation 95:1549-1553; 1997. The guiding catheter was used as a reference to obtain an oversizing from 10 to 20%.
Coronary segments were carefully dissected together with a 1 cm minimum vessel segment both proximal and distal to the stent. The segments were fixed in a 10% formalin solution. The middle part of each stent was harvested for histopathologic analysis. Tissue specimens were embedded in a cold-polymerizing resin (Technovit 7100, Heraus Kulzer GmbH, and Wehrheim, Germany). Sections, 5 microns thick, were cut with a rotary heavy duty microtome HM 360 (Microm, Walldorf, Germany) equipped with a hard metal knife and stained with hematoxylin-eosin, elastic stain and phosphotungstic acid hematoxylin stain. Light microscopic examination was performed by an experienced pathologist who was blinded to the type of stent used. Injury of the arterial wall due to stent deployment (and eventually inflammation induced by the polymer) was evaluated for each stent filament and graded as described by Schwartz et al. • Grade 0=internal elastic membrane intact, media compressed but not lacerated; • Grade 1=internal elastic membrane lacerated; • Grade 2=media visibly lacerated; external elastic membrane compressed but intact; • Grade 3=large laceration of the media extending through the external elastic membrane or stent filament residing in the adventitia.
Inflammatory reaction at each stent filament was carefully examined, searching for inflammatory cells, and scored as followed: • 1=sparsely located histolymphocytes surrounding the stent filament; • 2=more densely located histolymphocytes covering the stent filament, but no lymphogranuloma and/or giant cells formation found; • 3=diffusely located histolymphocytes, lymphogranuloma and/or giant cells, also invading the media. • Mean score=sum of score for each filament/number of filament present.

porcine coronary model [5] = assay: Oil/solvent emulsion coated stents (500 μg) in a porcine coronary model, up to 3 months; format: in vivo; conditions: oil/solvent emulsion coating, 500 μg melatonin per stent
Method: as §2
Using the same coating method, no effect of probucol was found.

[6] = system: in-stent neointimal hyperplasia; assay: Further studies with different total loading doses per stent, in-stent neointimal hyperplasia; format: in vivo

SMILES | In-vitro release ([1]; direct coating, within 24 hours) [%] | melatonin release period ([1]; oil/solvent emulsion coating, total load 500 μg per stent) | biocompatibility / inflammation surrounding the struts on histological examination (porcine coronary model [2]; 20 μg per stent, follow-up after 5 days) | effect on inflammatory response and neointimal hyperplasia (porcine coronary model [2]; high dose, maximum total load 300 μg/stent) | decrease in neointimal hyperplasia compared to a bare stent (porcine coronary model [2]; total load 20 μg per stent, after 4 weeks) [%] | duration of sufficient melatonin coronary vascular concentration [3] | effect on neointimal hyperplasia compared to bare and oil-only stents (in words) ([4]; 4 weeks) | lumen area compared with the other groups (in words) ([4]; 4 weeks) | AS: Area stenosis (= 100 * (1 − LA/IEL)) [4] [%] | Inflammation (peri-strut inflammation score 1-3, mean) [4] | Injury (arterial injury score, Schwartz grade 0-3, mean) [4] | NIH: Neointimal hyperplasia (= IEL − LA) [4] [mm2] | LA: Lumen area [4] [mm2] | effect on arterial injury and inflammatory response (in words) ([4]; 4 weeks) | effect on peri-strut inflammation and neointimal hyperplasia (porcine coronary model [5]) | effect on neointimal hyperplasia ([6]; dose depending response, already observed for a dose of 0.5 μg/mm^2 stent area) | effect on inflammatory response and neointimal hyperplasia (porcine coronary model [2]; similar experiments as 20 μg melatonin stents) | Inflammation (peri-strut inflammation score 1-3, mean) ([4]; listed as Probutol) | effect on in-stent neointimal hyperplasia ([6]; Probucol total loading doses 10-2000 μg per stent)
COc1ccc2[nH]cc(CCNC(C)=O)c2c1 [Melatonin, N-acetyl-5-methoxytryptamine] | 90 | weeks instead of days | without inducing any inflammation | efficient blocking of inflammatory response and neointimal hyperplasia | 26 | up to 15 days | significant decrease | larger than the other groups | 16±7 | 1.00±0.00 | 0.08 ± 0.09 | 0.89±0.28 | 5.10 ± 1.40 | the injury score was dramatically decreased; also recorded: minimal inflammatory response | Sustained inhibition of peri-strut inflammation and neointimal hyperplasia | significant inhibition | – | – | –
CC(C)(Sc1cc(C(C)(C)C)c(O)c(C(C)(C)C)c1)Sc1cc(C(C)(C)C)c(O)c(C(C)(C)C)c1 [Probucol] | – | – | – | – | – | – | no significant effect | – | 24 ± 14 | 1.03 ± 0.08 | 0.28 ± 0.20 | 1.43 ± 0.77 | 4.46 ± 1.06 | could decrease arterial injury and inflammatory response | no effect | – | did not result in a significant effect | 1.03±0.08 | no significant effect
